Key:
[1] = test system: monoamine uptake transporters; test: Microdialysis in rat striatum (extracellular DA, HVA); format: in vivo
Description: To evaluate the effect of (1R,5S)-(+)-1-(naphthalen-2-yl)-3-azabicyclo[3.1.0]hexane on monoamine uptake transporters in vivo, microdialysis studies were performed in rat brain regions.
Microdialysis studies were conducted using male Wistar rats (250-300 g) bred at the Institute of Pharmacology, the Polish Academy of Sciences, Krakow, Poland. The rats (250-300 g) were housed on a 12 h/12 h light/dark cycle at a constant temperature and humidity, and were provided with food and water ad libitum. The microdialysis procedure has been previously described (Popik et al., 2006). Briefly, the rats were anaesthetized with ketamine (75 mg/kg IM) and xylazine (10 mg/kg IM), placed in a stereotaxic apparatus (David Kopf Instruments, Tujunga, CA, USA) with their skulls exposed. Small holes were drilled in the skull for insertion of the vertical microdialysis probes into the prefrontal cortex and striatum, respectively using the following coordinates: 2.9 mm anterior from the bregma, 0.8 mm lateral from the sagittal suture and −4.5 ventral from the dura surface (prefrontal cortex); 1.8 mm anterior from the bregma, 2.7 mm lateral from the sagittal suture and −7.0 mm ventral from the dura surface (striatum) (Paxinos and Watson, 1998). Microdialysis probes were constructed by inserting two fused silica tubes (30 and 35 mm long, 150 μm o.d.; Polymicro Technologies Inc., Phoenix, AZ, USA) into a microdialysis fiber (220 μm o.d.; AN69, Hospal, Bologna, Italy). The tube assembly was placed in a stainless steel cannula (22 G, 10 mm) forming the shaft of the probe. Portions of the inlet and outlet tubes were individually placed inside polyethylene PE-10 tubing and were glued for protection. The free end of the dialysis fibre was sealed, and 3 mm of the exposed length used for dialysis in prefrontal cortex and 4 mm for striatum. One day after the surgery and probe implantation, the inlet of the dialysis probes was connected to a syringe pump (BAS, IN, USA) which delivered an artificial cerebrospinal fluid (aCSF) composed of [in mM]: NaCl 145, KCl 2.7, MgCl2 1.0, CaCl2 1.2; pH=7.4 at a flow rate of 1.5 μl/min. After a two hour rinsing period to stabilize the extracellular level of neurotransmitters, 3-4 baseline samples were collected in 20 minute sampling periods. Next, (1R,5S)-(+)-1-(naphthalen-2-yl)-3-azabicyclo[3.1.0]hexane (dissolved in 0.9% saline solution) at doses of 10 or 20 mg/kg intraperioneally (i.p.) was administered to the animals at 4 ml/kg and consequent dialysate fractions were collected every 20 min for 3 hrs. At the end of the experiments the rats were sacrificed and their brains were histologically examined to validate the correct probe placement
Dopamine, and serotonin (5-HT) were analysed by HPLC with electrochemical detection. […] The flow rate was 0.5 ml/min, and the applied potential of a 3 mm glassy carbon electrode was +600 mV with a sensitivity of 2 nA/V. Norepinephrine was measured using HPLC system equipped with a P580 pump (Dionex, CA, USA) connected to a BAS injection valve with a 10 μI injection loop and a BDS-Hypersil analytical column (2.0×100 mm, a 3 μm, Thermo Electron Corp., UK). […] NE in the dialysates was detected with a BAS UniJet radial flow detector cell coupled to a LC-4B amperometric detector (BAS, IN, USA). […]

[2] = target: T1, recombinant human 5-HT transporter (Homo sapiens, UniProt P31645); test: Inhibition of [3H]serotonin uptake in HEK-293 cells transfected with the 5-HT uptake transporter; format: cell-based
T1 construct: host or cells: HEK-293
Description: The ability of (1R,5S)-(+)-1-(naphthalen-2-yl)-3-azabicyclo[3.1.0]hexane for inhibiting transport of norepinephrine (NE) and/or dopamine (DA) and/or serotonin (5-HT) was evaluated using cell lines (such as the HEK 293 cell line) that stably express recombinant human NE, DA, and 5-HT transporters, respectively. Techniques for stably transfecting mammalian cell lines with neurotransmitter transporters and measuring the effects of drugs on amine uptake have been described in the literature (e.g., Eshleman A J, J Pharmacol Exp Ther 289:877-885, 1999) and are well known to those skilled in the art
Monoamine uptake was determined in MDCK, CHO-K1, and HEK-293 cell lines respectively transfected with NE, DA, and 5-HT uptake transporters by MDS Pharma Services (Taipei, Taiwan 112, R. O. C.). The cells were incubated in 5 mM Tris-HCl, and 7.5 mM HEPES buffer, pH 7.1, containing 120 mM NaCl, 5.4 mM KCl, 1.2 mM CaCl2, 1.2 mM MgSO4, 5 mM D-glucose, and 1 mM Ascorbic Acid. The cellular homogenates were incubated with radioligands and various concentrations of drugs for 10 minutes at 25° C. The [^3H]-radioligands incorporated into the cells were determined according to published methods using liquid scintillation counting (Perovic and Müller 1995; Eshleman et al., 1999). […]

T1 sequence (P31645 whole entry): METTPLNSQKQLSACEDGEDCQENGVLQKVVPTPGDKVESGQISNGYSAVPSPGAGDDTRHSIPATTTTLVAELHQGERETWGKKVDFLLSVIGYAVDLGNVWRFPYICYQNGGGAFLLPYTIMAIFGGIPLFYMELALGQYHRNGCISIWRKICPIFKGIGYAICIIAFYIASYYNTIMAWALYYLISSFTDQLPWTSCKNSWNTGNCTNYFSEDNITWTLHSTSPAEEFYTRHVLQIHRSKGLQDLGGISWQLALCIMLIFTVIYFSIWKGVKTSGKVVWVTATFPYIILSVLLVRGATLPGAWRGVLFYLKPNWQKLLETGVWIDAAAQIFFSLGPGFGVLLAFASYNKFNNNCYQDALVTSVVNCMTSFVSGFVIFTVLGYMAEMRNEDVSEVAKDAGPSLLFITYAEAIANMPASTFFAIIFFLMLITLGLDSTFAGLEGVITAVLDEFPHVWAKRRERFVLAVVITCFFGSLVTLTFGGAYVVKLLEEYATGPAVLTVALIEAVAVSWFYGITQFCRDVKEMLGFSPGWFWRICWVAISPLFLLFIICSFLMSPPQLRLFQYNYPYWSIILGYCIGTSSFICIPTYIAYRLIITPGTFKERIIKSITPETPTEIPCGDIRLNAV

## c1ccc2cc([C@]34CNC[C@H]3C4)ccc2c1 [(1R,5S)-(+)-1-(naphthalen-2-yl)-3-azabicyclo[3.1.0]hexane]
[1]
  duration of effect on extracellular DA: over 3 hours
  effect on extracellular concentrations of HVA (metabolite of DA): decreased
  time within which extracellular DA was markedly increased: ≤ 40 min
[1]; 10 mg/kg i.p.
  peak increase of extracellular DA: over 275 % of baseline
[1]; 20 mg/kg i.p.
  peak increase of extracellular DA: > 375 % of baseline
[2]
  IC50: 83 nM
